# Key:
# Assay type in all cases: biochemical
# Conditions in all cases: 10^-5 M
# [1] = system: noradrenaline uptake; assay: noradrenaline uptake in hypothalamus slices
# Source text: (§1) We have also investigated the effects of HT1001 on noradrenaline, dopamine and 5-hydroxytryptamine reuptake and monamine oxidase A and B activity in vitro. When compared to amphetamine, HT1001 has little effect on noradrenaline or dopamine uptake. For example, at 10^-4 M (assuming a molecular weight of 900 for HT1001) HT1001 inhibits noradrenaline uptake in hypothalamus slices 3.0% whereas amphetamine at 10^-5 M inhibits uptake by 83%. […] None of these effects are dramatic.
# [2] = system: dopamine uptake; assay: dopamine uptake in striatal slices
# Source text: as §1
# [3] = system: 5-hydroxytryptamine uptake; assay: 5-hydroxytryptamine uptake in striatal slices
# Source text: as §1
compound,measurement,setting,value
CC(N)Cc1ccccc1 (stereo not drawn) [amphetamine],inhibition of noradrenaline uptake,[1],83%
same,inhibition of dopamine uptake,[2],92.4%
same,inhibition of 5-hydroxytryptamine uptake,[3],94%
